Some test systems named below: HCC-2998 colon; HCT-116 colon; HT29 colon; K-562 leukemia; M14 melanoma; NCI-H226 lung; OVCAR-4 ovarian; SK-MEL-28 melanoma; SK-MEL-5 melanoma; MOLT-4 leukemia.
What all share (assay): NCI-60 cell line screen, 48 h

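Compound exposure: 48 hours, 5 concentrations, 96-well plates. GI50: concentration for 50% inhibition of growth. TGI: total growth inhibition.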

For the compound `CCCC(N)C(=O)c1ccccc1` (stereo not drawn), the TGI in the assay with HCC-2998 colon, in the assay on HCT-116 colon, in the assay on HT29 colon, in the assay with K-562 leukemia, in the assay on M14 melanoma and in the assay with NCI-H226 lung was over 100 µM throughout. The TGI in the assay with OVCAR-4 ovarian, in the assay with SK-MEL-28 melanoma and in the assay with SK-MEL-5 melanoma was over 100 µM in each case.
In the case of `CCOc1ccc(/C(C=O)=C(\Cl)c2ccc(OC)c(OC)c2)cc1`, the TGI with HCT-116 colon, in the assay with HT29 colon, with K-562 leukemia, with M14 melanoma, in the assay with NCI-H226 lung and in the assay with SK-MEL-28 melanoma was over 100 µM in each case. Further, the TGI in the assay with SK-MEL-5 melanoma was over 100 µM.
`O=C(O)C1CCC(=O)N1S(=O)(=O)c1ccccc1` (stereo not drawn): the TGI in the assay with HCC-2998 colon, in the assay with HCT-116 colon, with HT29 colon, in the assay on K-562 leukemia, in the assay on MOLT-4 leukemia and with NCI-H226 lung was over 100 µM in each case. The TGI with OVCAR-4 ovarian, in the assay on SK-MEL-28 melanoma and with SK-MEL-5 melanoma was over 100 µM in each case.
As for `C=C1C(=O)O[C@@H]2[C@H]1CCC(C)=C1C=CC(=O)[C@]12C`, the TGI with HCC-2998 colon turned out to be 27.8 µM; in the assay on HCT-116 colon it was 26.7 µM; with HT29 colon, 24.2 µM; with K-562 leukemia it was 90.2 µM; with MOLT-4 leukemia, 39.4 µM; in the assay on NCI-H226 lung, 43.4 µM. Also, the TGI is 23.4 µM in the assay with SK-MEL-28 melanoma and 27.5 µM with SK-MEL-5 melanoma.
With `CC(=O)C=NCC(=O)O`, the TGI with HCT-116 colon, in the assay on HT29 colon, in the assay with K-562 leukemia, in the assay on M14 melanoma, with MOLT-4 leukemia and in the assay with NCI-H226 lung was over 100 µM throughout. The TGI in the assay with OVCAR-4 ovarian, in the assay with SK-MEL-28 melanoma and in the assay on SK-MEL-5 melanoma was over 100 µM in each case.
For `c1ccc(N=c2nc(N3CCOCC3)ss2)cc1`, the TGI was 45.1 µM with HCC-2998 colon; 27.7 µM in the assay with HCT-116 colon; 35.4 µM in the assay with HT29 colon; 43.6 µM in the assay with K-562 leukemia; 27.9 µM in the assay with M14 melanoma; 37.1 µM in the assay with MOLT-4 leukemia. The TGI in the assay on NCI-H226 lung is over 100 µM; with OVCAR-4 ovarian it was 29.1 µM; in the assay with SK-MEL-28 melanoma it was 32.1 µM; in the assay on SK-MEL-5 melanoma it was over 100 µM.
With `N#CC(Nc1cccc(C(F)(F)F)c1)c1ccccc1C(F)(F)F` (stereo not drawn), the TGI in the assay with HCC-2998 colon is 18.6 µM; with HCT-116 colon, 18.7 µM; with HT29 colon, 28 µM; in the assay with K-562 leukemia it was 42.4 µM; in the assay on M14 melanoma, 17.6 µM; with MOLT-4 leukemia, 40.5 µM. The TGI was found to be 30.4 µM with NCI-H226 lung, 15.2 µM with OVCAR-4 ovarian, 31.8 µM in the assay with SK-MEL-28 melanoma and 32.1 µM with SK-MEL-5 melanoma.
For the compound `COc1ccc(-c2nn(-c3cccc(NC(=O)Nc4ccccc4)c3)cc2-c2ccncc2)cc1Cl`, the GI50 was 2.19 µM in the assay on HT29 colon; 3.49 µM in the assay with K-562 leukemia; 2.26 µM in the assay with M14 melanoma; 2.5 µM in the assay on MOLT-4 leukemia; 2.15 µM in the assay with NCI-H226 lung; 2.62 µM with SK-MEL-28 melanoma. Further, the TGI in the assay with HT29 colon is 4.78 µM; in the assay on K-562 leukemia, over 100 µM; with M14 melanoma it was 4.85 µM; in the assay with MOLT-4 leukemia it was 7.96 µM; in the assay on NCI-H226 lung, 5.81 µM; in the assay with SK-MEL-28 melanoma it was 7.16 µM.
For the compound `NC1(C(=O)O)CCc2ccc(N(CCCl)CCCl)cc2C1` (stereo not drawn), the TGI is over 100 µM in the assay with HCC-2998 colon; 1.69 µM in the assay with HCT-116 colon; over 100 µM with HT29 colon; over 100 µM in the assay on K-562 leukemia; 87 µM in the assay with MOLT-4 leukemia; over 100 µM with NCI-H226 lung. For the same compound, the TGI with OVCAR-4 ovarian, in the assay with SK-MEL-28 melanoma and in the assay on SK-MEL-5 melanoma was over 100 µM in each case.
`CCC(=O)NC(Nc1cccc(F)c1)(C(F)(F)F)C(F)(F)F`: the TGI with HCC-2998 colon, in the assay on HCT-116 colon, with HT29 colon, in the assay with K-562 leukemia, in the assay with M14 melanoma and in the assay with MOLT-4 leukemia was over 100 µM in each case. Besides, the TGI in the assay on OVCAR-4 ovarian, with SK-MEL-28 melanoma and with SK-MEL-5 melanoma was over 100 µM throughout.
For the compound `Cc1cc2c(C(C)C)c(O)c(O)c(C=NCCO)c2c(O)c1-c1c(C)cc2c(C(C)C)c(O)c(O)c(C=NCCO)c2c1O`, the TGI turned out to be 8.25 µM with HCC-2998 colon; 3.03 µM with HCT-116 colon; 4.99 µM in the assay on HT29 colon; 3.31 µM in the assay on K-562 leukemia; 3.58 µM in the assay on M14 melanoma; 2.46 µM in the assay on MOLT-4 leukemia. Moreover, the TGI was determined as 6.88 µM with NCI-H226 lung, 16.3 µM with OVCAR-4 ovarian, 3.66 µM in the assay on SK-MEL-28 melanoma and 3.23 µM in the assay on SK-MEL-5 melanoma.
`O=C(Nc1ccc(Sc2ccc(N=Nc3c(O)c(S(=O)(=O)O)cc4cc(S(=O)(=O)O)ccc34)cc2)cc1)c1ccc(N=Nc2c(O)ccc3c(S(=O)(=O)O)cc(S(=O)(=O)O)cc23)cc1`: the TGI is over 100 µM with HCC-2998 colon; over 100 µM in the assay on HCT-116 colon; over 100 µM with HT29 colon; 87.6 µM in the assay on K-562 leukemia; 66.2 µM in the assay with M14 melanoma; 52.1 µM in the assay on MOLT-4 leukemia. For the same compound, the TGI is over 100 µM in the assay with NCI-H226 lung, over 100 µM in the assay on OVCAR-4 ovarian, over 100 µM in the assay on SK-MEL-28 melanoma and 43.3 µM in the assay with SK-MEL-5 melanoma.
For `CN1C[C@H]2[C@@H](C1=O)[C@H](c1ccccc1)ON2C`, the TGI with HCC-2998 colon, in the assay on HCT-116 colon, in the assay with HT29 colon, with K-562 leukemia, in the assay with M14 melanoma and in the assay with MOLT-4 leukemia was over 100 µM throughout. The TGI in the assay on NCI-H226 lung, in the assay with OVCAR-4 ovarian, with SK-MEL-28 melanoma and in the assay on SK-MEL-5 melanoma was over 100 µM in each case.
`CC(=O)O[C@H]1C=CC(=O)C(C)CC1C` (stereo partly drawn): the TGI in the assay with HCC-2998 colon, in the assay on HCT-116 colon, in the assay on HT29 colon, in the assay with K-562 leukemia, with M14 melanoma and in the assay with MOLT-4 leukemia was over 100 µM in each case. Moreover, the TGI with NCI-H226 lung, in the assay with OVCAR-4 ovarian, in the assay on SK-MEL-28 melanoma and in the assay with SK-MEL-5 melanoma was over 100 µM in each case.
Regarding `Clc1ccc(CNc2nc(Cl)c3[nH]cnc3n2)cc1Cl`, the TGI with HCC-2998 colon is 53.2 µM; in the assay on HCT-116 colon, 60.7 µM; in the assay on HT29 colon it was 83.4 µM; with K-562 leukemia, over 100 µM; with M14 melanoma, 70.3 µM; in the assay on MOLT-4 leukemia it was over 100 µM. Also, the TGI was 78.9 µM in the assay on NCI-H226 lung, over 100 µM in the assay on OVCAR-4 ovarian and 37.4 µM in the assay on SK-MEL-5 melanoma.
As to `O=C(Nc1c(C(=O)NC2CCCCC2)[nH]c(=O)[nH]c1=O)c1ccc(Cl)cc1`, the TGI in the assay on HCT-116 colon, with HT29 colon, in the assay with K-562 leukemia, in the assay with M14 melanoma, with MOLT-4 leukemia and with NCI-H226 lung was over 100 µM throughout. The TGI with OVCAR-4 ovarian, in the assay with SK-MEL-28 melanoma and with SK-MEL-5 melanoma was over 100 µM each time.
Consider `Fc1ccc(-c2nn3c(-c4cc(C(F)(F)F)cc(C(F)(F)F)c4)nnc3s2)cc1`, for which the GI50 in the assay on HCC-2998 colon is over 50 µM; in the assay on HCT-116 colon, 1.7 µM; with HT29 colon, over 50 µM; in the assay with K-562 leukemia, over 50 µM; in the assay on M14 melanoma, over 50 µM; with MOLT-4 leukemia it was over 50 µM. Moreover, the GI50 with NCI-H226 lung is 1.49 µM; in the assay on OVCAR-4 ovarian, 1.48 µM; in the assay with SK-MEL-5 melanoma, 4.42 µM. Besides, the TGI with HCC-2998 colon, with HCT-116 colon, with HT29 colon, in the assay on K-562 leukemia, in the assay with M14 melanoma and in the assay with MOLT-4 leukemia was over 50 µM throughout. Also, the TGI in the assay with NCI-H226 lung, in the assay with OVCAR-4 ovarian and with SK-MEL-5 melanoma was over 50 µM in each case.

For the origin of these results see PubChem BioAssay (NCI).
